# Measured values: patent US20220378791A1, “JAK1 INHIBITORS FOR THE TREATMENT OF MYELODYSPLASTIC SYNDROMES” (Incyte Corporation, priority 2014, published 2022)
# What was measured:
# [1] = target: T1, human JAK1 (a.a. 837-1142) (Homo sapiens, UniProt P23458); assay: In vitro JAK kinase assay (HTRF), JAK1; assay type: biochemical; conditions: 1 mM ATP
# T1 construct: human JAK1 (a.a. 837-1142); His tag (N); made in house; host or cells: insect cells (baculovirus)
# Description: Compounds herein were tested for inhibitory activity of JAK targets according to the following in vitro assay described in Park et al., Analytical Biochemistry 1999, 269, 94-104. The catalytic domains of human JAK1 (a.a. 837-1142), JAK2 (a.a. 828-1132) and JAK3 (a.a. 781-1124) with an N-terminal His tag were expressed using baculovirus in insect cells and purified. The catalytic activity of JAK1, JAK2 or JAK3 was assayed by measuring the phosphorylation of a biotinylated peptide. The phosphorylated peptide was detected by homogenous time resolved fluorescence (HTRF). […] Reactions were carried out at room temperature for 1 hour and then stopped with 20 μL 45 mM EDTA, 300 nM SA-APC, 6 nM Eu-Py20 in assay buffer (Perkin Elmer, Boston, Mass.). Binding to the Europium labeled antibody took place for 40 minutes and HTRF signal was measured on a Fusion plate reader (Perkin Elmer, Boston, Mass.).
# [2] = target: T2, human JAK2 (a.a. 828-1132) (Homo sapiens, UniProt O60674); assay: In vitro JAK kinase assay (HTRF), JAK2; assay type: biochemical; conditions: IC50 ratio, selectivity for JAK1 over JAK2, 1 mM ATP
# T2 construct: JAK2 (a.a. 828-1132); His tag (N); made in house; host or cells: insect cells (baculovirus)
# Description: Compounds herein were tested for inhibitory activity of JAK targets according to the following in vitro assay described in Park et al., Analytical Biochemistry 1999, 269, 94-104. The catalytic domains of human JAK1 (a.a. 837-1142), JAK2 (a.a. 828-1132) and JAK3 (a.a. 781-1124) with an N-terminal His tag were expressed using baculovirus in insect cells and purified. The catalytic activity of JAK1, JAK2 or JAK3 was assayed by measuring the phosphorylation of a biotinylated peptide. The phosphorylated peptide was detected by homogenous time resolved fluorescence (HTRF). […] Reactions were carried out at room temperature for 1 hour and then stopped with 20 μL 45 mM EDTA, 300 nM SA-APC, 6 nM Eu-Py20 in assay buffer (Perkin Elmer, Boston, Mass.). Binding to the Europium labeled antibody took place for 40 minutes and HTRF signal was measured on a Fusion plate reader (Perkin Elmer, Boston, Mass.). See Table 2 for data for compounds of the examples as tested by the assay of Example A at 1 mM ATP.
# MDS patients [3] = conditions: 83 patients enrolled, 51 completed 12 weeks of therapy; cited from earlier work
# MDS patients [4] = conditions: study of 14 MDS patients; cited from earlier work
# T1 sequence (P23458 849-1154): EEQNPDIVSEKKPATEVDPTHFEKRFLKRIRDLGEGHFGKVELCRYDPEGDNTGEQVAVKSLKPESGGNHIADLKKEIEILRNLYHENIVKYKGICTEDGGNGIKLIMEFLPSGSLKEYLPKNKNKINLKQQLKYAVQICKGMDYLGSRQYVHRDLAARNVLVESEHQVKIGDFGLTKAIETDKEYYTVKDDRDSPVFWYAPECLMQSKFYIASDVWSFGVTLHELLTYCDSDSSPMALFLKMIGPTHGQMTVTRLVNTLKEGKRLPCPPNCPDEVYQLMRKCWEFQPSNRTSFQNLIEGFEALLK
# T2 sequence (O60674 828-1132): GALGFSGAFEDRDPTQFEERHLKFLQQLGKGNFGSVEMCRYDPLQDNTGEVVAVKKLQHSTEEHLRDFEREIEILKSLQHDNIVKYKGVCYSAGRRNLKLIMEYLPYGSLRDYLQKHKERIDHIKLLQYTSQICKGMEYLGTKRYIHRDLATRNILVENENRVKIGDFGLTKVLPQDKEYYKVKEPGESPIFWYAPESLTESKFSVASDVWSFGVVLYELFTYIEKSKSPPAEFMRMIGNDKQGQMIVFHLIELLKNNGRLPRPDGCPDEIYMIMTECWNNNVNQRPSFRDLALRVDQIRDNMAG
IC50 [1] [nM],JAK2/JAK1 [2],Compound,also measured
< 10,>10,"C[C@H](O)CNCc1cc(OC2CCN([C@H]3C[C@](CC#N)(n4cc(-c5ncnc6[nH]ccc56)cn4)C3)CC2)nc(C(F)(F)F)c1 [Example 23, {trans-3-(4-{[4-({[(2S)-2-hydroxypropyl]amino}methyl)-6-(trifluoromethyl)pyridin-2-yl]oxy}piperidin-1-yl)-1-[4-(7H-pyrrolo[2,3-d]pyrimidin-4-yl)-1H-pyrazol-1-yl]cyclobutyl}acetonitrile]",
< 10,>10,"N#CC[C@]1(n2cc(-c3ncnc4[nH]ccc34)cn2)C[C@H](N2CCC(Oc3cc(CCO)cc(C(F)(F)F)n3)CC2)C1 [Example 24, {trans-3-(4-{[4-(2-hydroxyethyl)-6-(trifluoromethyl)pyridin-2-yl]oxy}piperidin-1-yl)-1-[4-(7H-pyrrolo[2,3-d]pyrimidin-4-yl)-1H-pyrazol-1-yl]cyclobutyl}acetonitrile]",
,,O=C1CCC(N2C(=O)c3ccccc3C2=O)C(=O)N1 (centres unmarked) [thalidomide],patients showed hematologic improvement (MDS patients [3]): 16 patients; previously transfusion-dependent patients becoming transfusion independent (MDS patients [3]): 10 patients
,,etanercept,erythroid hematologic improvement (MDS patients [4]): 25 % of patients; improvement in platelet counts and ANC (MDS patients [4]): 12.5 % of evaluable patients
